Results taken from patent publication US8377935B2, “Substituted aminopropenyl piperidine or morpholine derivatives as novel inhibitors of histone deacetylase” (Janssen Pharmaceutica N.V., priority 2005, dated 2013).

Columns and labels:
p21 promoter = assay: p21 induction capacity, in vivo method (tumour fluorescence in nude mice); parameters: key: inactive (no fluorescence measurable); weaker, identical or better than R306465; weaker, identical or better than R306465; weaker, identical or better than R306465; details: oral administration, daily during 6 days, 20-40 mpk
Experimental: A first method tests the capacity of compounds to induce p21 as the consequence of HDAC inhibition at the cellular level. […] The reporter gene is a fluorescent protein and the expression of the reporter gene is measured as the amount of fluorescent light emitted (see example C.6.a.). The second method is an in vivo method wherein mice are used for screening the pharmaceutical activity of a compound. The above described stably transformed tumour cells can be administered to mice in an amount sufficient to effect production of a tumour. After the tumour cells had sufficient time to form a tumour, a potentially active compound can be administered to the animals and the effect of said compound On the tumour cells is evaluated by measuring the expression of the reporter gene. […]
A selected clone was injected subcutaneous (10^7 cells/200 μl) into the flank of nude mice and a calliper measurable tumour was obtained after 12 days. […] Tumours were evaluated for fluorescence by the in-house developed Automated Whole Body Imaging System (Fluorescent stereomicroscope type Olympus® SZX12 equipped with a GFP filter and coupled to a CCD camera type IAI® CV-M90 controlled by a software package based on the IMAQ Vision Software from National Instruments®). […]

[1] = system: A2780 ovarian carcinoma cells; assay: Determination of antiproliferative activity on A2780 cells (MTT); type: cell-based; details: Homo sapiens, 96 h, four days of incubation, read-out: Cellular activity pIC50 (converted)
Experimental: Cellular activity of the compounds of formula (I) was determined on A2780 tumour cells using a colorimetric assay for cell toxicity or survival (Mosmann Tim, Journal of Immunological Methods 65:55-63, 1983)(see example C.2).
All compounds tested were dissolved in DMSO and further dilutions were made in culture medium. Final DMSO concentrations never exceeded 0.1% (v/v) in cell proliferation assays. Controls contained A2780 cells and DMSO without compound and blanks contained DMSO but no cells. MTT was dissolved at 5 mg/ml in PBS. A glycine buffer comprised of 0.1 M glycine and 0.1 M NaCl buffered to pH 10.5 with NaOH (1 N) was prepared (all reagents were from Merck).
The human A2780 ovarian carcinoma cells (a kind gift from Dr. T. C. Hamilton [Fox Chase Cancer Centre, Pennsylvania, USA]) were cultured in RPMI 1640 medium supplemented with 2 mM L-glutamine, 50 μg/ml gentamicin and 10% fetal calf serum. Cells were routinely kept as monolayer cultures at 37° C. in a humidified 5% CO2 atmosphere. Cells were passaged once a week using a trypsin/EDTA solution at a split ratio of 1:40. All media and supplements were obtained from Life Technologies. Cells were free of mycoplasma contamination as determined using the Gen-Probe Mycoplasma Tissue Culture kit (supplier: BioMerieux).
Cells were seeded in NUNC™ 96-well culture plates (Supplier: Life Technologies) and allowed to adhere to the plastic overnight. Densities used for plating were 1500 cells per well in a total volume of 200 μl medium. After cell adhesion to the plates, medium was changed and drugs and/or solvents were added to a final volume of 200 μl. Following four days of incubation, medium was replaced by 200 μl fresh medium and cell density and viability was assessed using an MTT-based assay. To each well, 25 μl MTT solution was added and the cells were further incubated for 2 hours at 37° C. The medium was then carefully aspirated and the blue MTT-formazan product was solubilized by addition of 25 μl glycine buffer followed by 100 μl of DMSO. […] Within an experiment, the results for each experimental condition are the mean of 3 replicate wells. For initial screening purposes, compounds were tested at a single fixed concentration of 10^−6 M. For active compounds, the experiments were repeated to establish full concentration-response curves. For each experiment, controls (containing no drug) and a blank incubation (containing no cells or drugs) were run in parallel. The blank value was subtracted from all control and sample values. For each sample, the mean value for cell growth (in absorbance units) was expressed as a percentage of the mean value for cell growth of the control. […] Herein the effects of test compounds are expressed as pIC50 (the negative log value of the IC50-value)(see Table F-3).

Q: `O=C(NO)c1cnc(N2CCC(CNC(/C=C/c3ccccc3)CO)CC2)nc1` (centres unmarked) [Compound 1] was tested. Which “tumour fluorescence (p21 induction) ranked against R306465” value (p21 promoter) did it give?
A: Its value is “better”.

Q: What about the IC50 [1] of the same molecule?
A: The IC50 was 25.1 nM.
